Tested on: focal middle cerebral arterial occlusion (MCAO) ischemia
Conditions: for neurological deficits (behavior ranking 0 to 3): 4 mg/kg i.p. at 6.5, 4.5, 2.5 and 0.5 h prior to ischemia, 24 h reperfusion, mean±SEM, n=8, 0=normal, 3=severe; for neurological deficits (behavior ranking 0 to 3) / infarct volume reduction compared to control animals: 1 h MCAO; for infarct volume reduction compared to control animals / differences in MABP, pO2, pCO2, pH or rectal temperature versus control animals: 4 mg/kg i.p. x4 prior to ischemia; for infarct volume reduction compared to control animals / statistical significance of the infarct volume difference versus control: after 24 h of reperfusion; for statistical significance of the infarct volume difference versus control: significance at p<0.05; for differences in MABP, pO2, pCO2, pH or rectal temperature versus control animals: post ischemia

| SMILES | neurological deficits (behavior ranking 0 to 3) | infarct volume reduction compared to control animals | statistical significance of the infarct volume difference versus control | differences in MABP, pO2, pCO2, pH or rectal temperature versus control animals |
| --- | --- | --- | --- | --- |
| CC(C)C[C@@H](NC(=O)[C@H](Cc1ccccc1)NC(=O)CNC(=O)[C@@H](C)NC(=O)[C@@H](N)Cc1ccc(O)cc1)C(=O)O [DADLE, Tyr-D-Ala-Gly-Phe-D-Leu-enkephalin] | 1.73±0.20 | 12% | not statistically significant | no significant differences |
| CC(C)[C@H](NC(=O)[C@H](CC(=O)O)NC(=O)[C@H](Cc1ccccc1)NC(=O)[C@@H](C)NC(=O)[C@@H](N)Cc1ccc(O)cc1)C(=O)N[C@H](C(=O)NCC(N)=O)C(C)C [deltorphin, Tyr-Ala-Phe-Asp-Val-Val-Gly-NH2] | 0.44±0.11 | 42% | significantly reduced | no significant differences |
